Laboratory results taken from PubChem BioAssay AID2198 (Vanderbilt High Throughput Screening Facility, 2009).
The source made the active and inactive calls.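 Rule for the calls: active = mean EC50 under 30 µM; inactive = the rest.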

Biological target: Muscarinic acetylcholine receptor M5 (Homo sapiens) (UniProt P08912)
Experiment: potentiation of ACh EC20 at hM5 – cell-based, calcium, SAR follow-up (AID 2198)
Details: CHO-K1 hM5, Fluo-4 calcium

Sequence of Muscarinic acetylcholine receptor M5 (Homo sapiens) (P08912 whole entry, looked up): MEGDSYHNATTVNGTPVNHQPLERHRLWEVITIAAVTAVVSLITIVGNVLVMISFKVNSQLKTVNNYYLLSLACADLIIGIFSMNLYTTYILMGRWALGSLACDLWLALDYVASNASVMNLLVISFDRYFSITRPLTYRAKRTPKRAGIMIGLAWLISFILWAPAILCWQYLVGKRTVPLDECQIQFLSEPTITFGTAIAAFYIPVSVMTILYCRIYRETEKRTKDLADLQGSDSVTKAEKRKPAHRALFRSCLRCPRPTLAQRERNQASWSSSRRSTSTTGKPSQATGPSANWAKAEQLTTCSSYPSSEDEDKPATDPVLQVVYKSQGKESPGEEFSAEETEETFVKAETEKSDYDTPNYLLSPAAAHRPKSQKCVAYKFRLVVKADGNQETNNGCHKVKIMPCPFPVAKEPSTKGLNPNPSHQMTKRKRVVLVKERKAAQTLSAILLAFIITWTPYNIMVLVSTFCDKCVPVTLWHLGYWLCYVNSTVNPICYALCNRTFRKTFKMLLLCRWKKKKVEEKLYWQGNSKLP

EC50	SMILES
3.28 µM	Cc1ccccc1CN1C(=O)C(=O)c2cc(OC(F)(F)F)ccc21
4.07 µM	O=C1C(=O)N(Cc2ccccc2Cl)c2ccc(OC(F)(F)F)cc21
1.85 µM	O=C1C(=O)N(Cc2ccc(C(F)(F)F)cc2)c2ccc(OC(F)(F)F)cc21
1.86 µM	O=C1C(=O)N(Cc2ccc(OC(F)(F)F)cc2)c2ccc(OC(F)(F)F)cc21
3.26 µM	O=C1C(=O)N(Cc2ccc(C(F)(F)F)cc2)c2c(F)cccc21
1.7 µM	COc1cccc(CN2C(=O)C(=O)c3cc(OC(F)(F)F)ccc32)c1
4.66 µM	O=C1C(=O)N(Cc2ccc(Br)cc2F)c2c(Cl)cccc21
> 30 µM (inactive)	COc1ccc(CN2C(=O)C(=O)c3ccccc32)cc1
> 30 µM (inactive)	O=C1C(=O)N(Cc2ccccc2C(F)(F)F)c2c(F)cccc21
> 30 µM (inactive)	O=C1C(=O)N(Cc2ccccc2C(F)(F)F)c2ccc(F)cc21
> 30 µM (inactive)	O=C1C(=O)N(Cc2ccc(Br)cc2F)c2ccc(OC(F)(F)F)cc21
1.93 µM	O=C1C(=O)N(Cc2ccc(Br)cc2)c2c(F)cccc21
3.3 µM	O=C1C(=O)N(Cc2ccc(C(F)(F)F)cc2)c2ccc(Cl)cc21
1.16 µM	COc1ccc(CN2C(=O)C(=O)c3cc(OC(F)(F)F)ccc32)cc1
3.19 µM	O=C1C(=O)N(Cc2ccc(C(F)(F)F)cc2)c2ccccc21
7.15 µM	COc1cccc(CN2C(=O)C(=O)c3c(Cl)ccc(Cl)c32)c1
3.96 µM	COc1ccc(CN2C(=O)C(=O)c3cccc(Cl)c32)cc1
